# Laboratory results reported in US20230124862A1, “BISMUTH THIOL COMPOUNDS AND COMPOSITIONS AND METHODS OF TREATING MICROBIAL CO-INFECTIONS” (Microbion Corporation, priority 2020, published 2023).
# Where “and” joins values, the source holds several entries; their conditions need not be identical. Equal entries are not always repeated. Where two headings read alike, the source gives them in different places. Marks after values point to notes of the source that are not given here.
# How the values were obtained:
# [1] = tested on: S. aureus ATCC 29213; assay: MIC control strain; conditions: QC organism, Example 13
# [2] = type: in vivo, beagle dogs; conditions: dog, per animal and Grp Avg, sampling times not given
# Method: Once adequately conditioned to the restraint device and face-masks, the animals are individually exposed to the test article aerosols. Animals receive a single face-mask inhalation exposure in a ramp study design to test article aerosols for up to 60 min. Animal observations during and post exposure determine the tolerance of inhaled BisEDT aerosols.
# Blood Collections and Bioanalytical Analysis: Blood are collected for pharmacokinetic (PK) analysis prior to exposure, then at 4 hr (±5 min) post exposure, and again on Day 1, Day 2, Day 7 (pre- and 4 hr (±5 min)-post exposure), Day 8, Day 9, Day 10, Day 11, Day 12, Day 13, and Day 14. A total of 0.25 mL is collected at each timepoint. No PK blood is collected from the vehicle control (Group 1) animals; only animals exposed to BisEDT have blood collected for PK analysis. Collected samples are flash frozen without processing for shipment to Medpace for bioanalytical analysis. Additional blood is collected from all animals in all groups for hematology (1 mL) and clinical chemistry (1 mL) at baseline, Day 7 (pre-exposure), and again at euthanasia. Blood (2-2 mL) is collected from all animals at necropsy for coagulation analysis (d-Dimer, fibrinogen, PT, and PTT).
# For hematology analyses, whole blood (1 ml) will be collected with vacutainers containing K3EDTA as an anticoagulant.
# Hematology samples are analyzed by automated (ADVIA™ 120 Hematology System, Siemens Medical Solutions Diagnostics, Tarrytown, N.Y.) analyses. Disposition will be recorded on the sample processing form.
# [3] = in vivo; parameters: species or system rat; conditions: for half-life / concentration at 24 hours / Kp: in vivo
# Excerpt: . Without being bound by any particular theory, it is believed BisEDT's low solubility provides slow dissolution and long exposure on lung surface fluids with limited systemic exposure via diffusion through lung epithelium. The lung appears to act as a depot for slow systemic exposure with about 10× lower systemic levels than seen in the lung. The terminal phase of the IV data appears to show slow elimination after initial tissue distribution (FIG. 36).
# . The NOAEL was established through clinical observation during and after treatment, gross necropsy, lung lavage analysis, clinical chemistry, and hematology results. […].
# [4] = tested on: MucilAir fully differentiated human airway epithelium
# [5] = Group 2 (55-56 ug/kg lung deposited)
# [6] = Group 4 (176-197 ug/kg lung deposited)
# [7] = rat, 24 hours after single inhalation dose
# [8] = rat, 4 days (96 hrs) after single dose
structure (smiles),measurement,setting,value
"CC(S)C(C)S.[Bi] (stereo not shown) [BisBDT, bismuth-2,3-butanedithiol]",MIC 24 hr,[1],1^a
"C1C[S][Bi]([S]CC[S][Bi]2[S]CC[S]2)[S]1 [BisEDT, Bismuth-1,2-ethanedithiol]",BASO,[2]; [5],0.12 ^3/uL (2×) and 0.15 ^3/uL and 0.08 ^3/uL (2×) and 0.11 ^3/uL and 0.10 ^3/uL and 0.07 ^3/uL and 0.13 ^3/uL
same,EOS,[2]; [5],0.30 ^3/uL and 0.45 ^3/uL and 0.39 ^3/uL and 0.14 ^3/uL and 0.09 ^3/uL and 0.06 ^3/uL and 0.22 ^3/uL and 0.27 ^3/uL and 0.23 ^3/uL
same,HCT,[2]; [5],45.8% and 43.1% and 41.8% and 49.0% and 43.7% and 42.9% and 47.4% and 43.4% and 42.4%
same,HGB,[2]; [5],15.6 g/dL and 15.0 g/dL (3×) and 14.2 g/dL and 16.4 g/dL and 14.3 g/dL (2×) and 16.0 g/dL
same,LUC,[2]; [5],0.01 ^3/uL (5×) and 0.02 ^3/uL (4×)
same,LYMP,[2]; [5],2.81 ^3/uL and 2.73 ^3/uL and 2.09 ^3/uL and 2.27 ^3/uL and 2.82 ^3/uL and 2.61 ^3/uL and 2.54 ^3/uL and 2.78 ^3/uL and 2.35 ^3/uL
same,MCH,[2]; [5],22.8 pg (2×) and 23.2 pg (2×) and 22.7 pg and 22.3 pg (2×) and 21.9 pg and 23.0 pg
same,MCHC,[2]; [5],34.1 g/dL (2×) and 34.9 g/dL and 33.4 g/dL and 34.4 g/dL and 33.2 g/dL and 33.8 g/dL and 34.7 g/dL and 33.7 g/dL
same,MCV,[2]; [5],67.0 fL and 66.4 fL and 66.5 fL and 69.5 fL and 64.8 fL and 66.0 fL and 68.3 fL and 65.6 fL and 66.3 fL
same,MONO,[2]; [5],0.63 ^3/uL and 0.67 ^3/uL and 0.53 ^3/uL and 0.50 ^3/uL and 0.51 ^3/uL (2×) and 0.57 ^3/uL and 0.59 ^3/uL and 0.52 ^3/uL
same,NEUT,[2]; [5],5.31 ^3/uL and 5.11 ^3/uL and 2.88 ^3/uL and 3.96 ^3/uL and 4.26 ^3/uL and 4.83 ^3/uL and 4.64 ^3/uL and 4.69 ^3/uL and 3.86 ^3/uL
same,PLT,[2]; [5],197 ^3/uL and 166 ^3/uL and 161 ^3/uL and 206 ^3/uL and 294 ^3/uL and 304 ^3/uL and 201.5 ^3/uL and 230.0 ^3/uL and 232.5 ^3/uL
same,RBC,[2]; [5],6.83 ^6/uL and 6.49 ^6/uL and 6.28 ^6/uL and 7.05 ^6/uL and 6.74 ^6/uL and 6.50 ^6/uL and 6.94 ^6/uL and 6.62 ^6/uL and 6.39 ^6/uL
same,RET %,[2]; [5],0.34% and 0.55% and 0.60% and 0.65% and 0.25% and 0.31% and 0.50% and 0.40% and 0.46%
same,WBC,[2]; [5],9.18 ^3/uL and 9.13 ^3/uL and 5.99 ^3/uL and 6.99 ^3/uL and 7.77 ^3/uL and 8.10 ^3/uL and 8.09 ^3/uL and 8.45 ^3/uL and 7.05 ^3/uL
same,BASO,[2]; [6],0.07 ^3/uL (3×) and 0.04 ^3/uL (2×) and 0.09 ^3/uL (3×) and 0.06 ^3/uL and 0.08 ^3/uL (2×) and 0.05 ^3/uL and 0.10 ^3/uL (3×)
same,EOS,[2]; [6],0.48 ^3/uL and 0.50 ^3/uL and 0.35 ^3/uL and 0.95 ^3/uL and 0.77 ^3/uL and 0.47 ^3/uL and 0.72 ^3/uL and 0.64 ^3/uL and 0.41 ^3/uL and 0.18 ^3/uL and 0.13 ^3/uL and 0.19 ^3/uL (2×) and 0.21 ^3/uL and 0.17 ^3/uL
same,HCT,[2]; [6],42.7% and 47.5% and 45.4% and 41.9% and 50.6% and 47.6% and 42.30% and 49.05% and 46.50% and 39.8% and 40.7% and 37.1% and 44.2% and 38.45% and 42.45%
same,HGB,[2]; [6],14.8 g/dL and 16.0 g/dL and 14.6 g/dL and 14.7 g/dL and 16.6 g/dL and 15.4 g/dL and 14.75 g/dL and 16.30 g/dL and 15.00 g/dL and 13.7 g/dL and 13.8 g/dL and 12.8 g/dL and 14.3 g/dL and 13.25 g/dL and 14.05 g/dL
same,LUC,[2]; [6],0.01 ^3/uL (7×) and 0.02 ^3/uL (8×)
same,LYMP,[2]; [6],2.68 ^3/uL and 3.18 ^3/uL and 2.78 ^3/uL (2×) and 2.88 ^3/uL and 3.04 ^3/uL and 2.82 ^3/uL and 3.11 ^3/uL and 2.80 ^3/uL and 2.46 ^3/uL and 2.59 ^3/uL and 2.32 ^3/uL and 2.87 ^3/uL and 2.39 ^3/uL and 2.73 ^3/uL
same,MCH,[2]; [6],23.0 pg and 23.4 pg and 22.9 pg (2×) and 22.8 pg and 23.1 pg and 22.90 pg (2×) and 23.25 pg and 24.1 pg and 20.9 pg and 21.0 pg and 24.2 pg and 22.55 pg (2×)
same,MCHC,[2]; [6],34.7 g/dL and 33.6 g/dL and 32.2 g/dL and 35.2 g/dL and 32.8 g/dL and 32.4 g/dL (2×) and 34.95 g/dL and 33.20 g/dL (2×) and 32.30 g/dL and 34.4 g/dL and 34.0 g/dL and 34.6 g/dL and 34.50 g/dL
same,MCV,[2]; [6],66.3 fL and 69.7 fL and 71.3 fL and 64.8 fL and 70.4 fL and 70.9 fL and 65.55 fL and 70.05 fL and 71.10 fL and 70.1 fL and 61.6 fL and 60.8 fL and 74.7 fL and 65.45 fL and 68.15 fL
same,MONO,[2]; [6],0.39 ^3/uL (2×) and 0.37 ^3/uL (2×) and 0.49 ^3/uL and 0.50 ^3/uL (2×) and 0.44 ^3/uL (2×) and 0.38 ^3/uL and 0.73 ^3/uL and 0.45 ^3/uL and 0.61 ^3/uL and 0.59 ^3/uL and 0.56 ^3/uL
same,NEUT,[2]; [6],4.61 ^3/uL and 5.96 ^3/uL (2×) and 6.30 ^3/uL and 5.98 ^3/uL and 5.95 ^3/uL and 6.74 ^3/uL and 5.30 ^3/uL and 6.52 ^3/uL and 6.73 ^3/uL and 4.11 ^3/uL and 3.60 ^3/uL and 7.39 ^3/uL and 5.17 ^3/uL and 5.75 ^3/uL
same,PLT,[2]; [6],208 ^3/uL and 214 ^3/uL and 213 ^3/uL and 246 ^3/uL and 238 ^3/uL and 251 ^3/uL and 227.00 ^3/uL and 226.00 ^3/uL and 232.00 ^3/uL and 257 ^3/uL and 308 ^3/uL and 313 ^3/uL and 248 ^3/uL and 285.00 ^3/uL and 278.00 ^3/uL
same,RBC,[2]; [6],6.44 ^6/uL and 6.81 ^6/uL and 6.37 ^6/uL and 6.46 ^6/uL and 7.19 ^6/uL and 6.71 ^6/uL and 6.45 ^6/uL and 7.00 ^6/uL and 6.54 ^6/uL and 5.68 ^6/uL and 6.61 ^6/uL and 6.11 ^6/uL and 5.92 ^6/uL and 5.90 ^6/uL and 6.27 ^6/uL
same,RET %,[2]; [6],0.41% and 0.33% and 0.58% and 0.27% and 0.62% and 0.43% and 0.34% and 0.48% and 0.51% (2×) and 1.07% and 0.88% and 0.83% and 0.79% and 0.86%
same,WBC,[2]; [6],8.23 ^3/uL and 10.09 ^3/uL and 9.86 ^3/uL and 10.41 ^3/uL and 10.37 ^3/uL and 10.50 ^3/uL and 9.32 ^3/uL (2×) and 10.23 ^3/uL and 10.18 ^3/uL and 10.21 ^3/uL and 7.45 ^3/uL and 6.63 ^3/uL and 11.18 ^3/uL and 8.42 ^3/uL
same,half-life,"[3]; 100 μg/kg, rat, after IV dosing, read-out: half-life of lung levels (converted)",~24 h
same,half-life,"[3]; inhaled or intranasal, 100 μg/kg, rat, after inhalation dosing, read-out: half-life in lung tissue (converted)",~96 h
same,concentration at 24 hours,"[3]; average rat, correlated from lung tissue level, read-out: concentration in lung epithelial lining fluid",150 to 175 µg/mL
same,half-life,"[3]; rat, longer-term single-dose and repeat-dose studies, read-out: half-life in lung tissue (converted)",96 to 168 h
same,lung surface fluid concentrations higher than total lung tissue concentrations,[3]; rat,approximately 30 fold
same,tolerability,"[3]; rat, 100 μg/kg inhalation and IV and 250 μg/kg oral",tolerated
same,equivalent concentration in lung fluid,[3]; [7],123 µg/mL
same,lung tissue concentration,[3]; [7],"4,093 ng/g"
same,equivalent concentration in lung fluid,[3]; [8],78 µg/mL
same,lung tissue concentration,[3]; [8],"2,600 ng/g"
same,lung levels after IV dosing vs inhalation group,"[3]; rat, IV",< 5%
same,Kp,"[3]; rat, rat, repeat dose TK, read-out: lung tissue exposure (AUC) greater than blood exposure",26
same,Kp,"[3]; rat, rat, read-out: lung fluid exposure (AUC) greater than systemic exposure",> 700
same,concentration at 24 hours,"[3]; rat, rats, doses near the NOAEL, 24 hours after dosing, read-out: lung tissue level (total wet lung tissue)",~5000 ng/g
same,LDH release,"[4]; BisEDT in solution 0.001-30 μM, 1, 8, 24, 48 h",not altered
same,LDH release (cytotoxicity),"[4]; solid, 1 μg/cm^2, 8, 24 and 48 h",time- and dose-dependent cytotoxicity
same,LDH release,"[4]; solid, 1 μg/cm^2, 1 hour",No significant effect
same,LDH release,"[4]; solid, 0.033 and 0.33 μg/cm^2, all time points",No significant effect
